Measured values as given in PubChem BioAssay (NCI).
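Grown in 96-well plates, cells were treated for 48 hours with each compound at five concentrations. Insufficient inhibition: endpoint recorded as highest concentration tested. GI50 marks 50% less growth. TGI is the concentration that stops growth completely.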

Tests used:
Test in all cases: NCI anticancer screen, dose series, 48 h
MDA-MB-435 = tested on: MDA-MB-435
PC-3 prostate = tested on: PC-3 prostate
SK-MEL-5 melanoma = tested on: SK-MEL-5 melanoma
A549 NSCLC = tested on: A549 NSCLC
OVCAR-8 ovarian = tested on: OVCAR-8 ovarian
ACHN renal = tested on: ACHN renal
KM12 colon = tested on: KM12 colon
786-0 renal = tested on: 786-0 renal
TK-10 renal = tested on: TK-10 renal
UACC-62 melanoma = tested on: UACC-62 melanoma
MALME-3M melanoma = tested on: MALME-3M melanoma
M14 melanoma = tested on: M14 melanoma
SNB-75 CNS = tested on: SNB-75 CNS
OVCAR-4 ovarian = tested on: OVCAR-4 ovarian
MCF7 breast = tested on: MCF7 breast
MDA-N = tested on: MDA-N
HCT-15 colon = tested on: HCT-15 colon
BT-549 breast = tested on: BT-549 breast

Row | SMILES | TGI (MDA-MB-435) [µM] | TGI (PC-3 prostate) [µM] | TGI (SK-MEL-5 melanoma) [µM] | TGI (A549 NSCLC) [µM] | TGI (OVCAR-8 ovarian) [µM] | TGI (ACHN renal) [µM] | TGI (KM12 colon) [µM] | TGI (786-0 renal) [µM] | TGI (TK-10 renal) [µM] | TGI (UACC-62 melanoma) [µM] | TGI (MALME-3M melanoma) [µM] | TGI (M14 melanoma) [µM] | TGI (SNB-75 CNS) [µM] | TGI (OVCAR-4 ovarian) [µM] | TGI (MCF7 breast) [µM] | TGI (MDA-N) [µM] | TGI (HCT-15 colon) [µM] | TGI (BT-549 breast) [µM] | GI50 (BT-549 breast) [µM]
1 | C[C@]12CCC(O)CC1=CC[C@@H]1[C@@H]2CC[C@]2(C)C(O)[C@H](n3ccnc3)C[C@@H]12 (stereo not given in full) | > 100 | > 100 | > 100 | > 100 | > 100 | > 100 | > 100 | > 100 | > 100 | > 100 | > 100 | > 100 | > 100 | > 100 | > 100 | > 100 | > 100 | – | –
2 | COc1ccc(NC(=S)Nc2cc(C)ccn2)cc1 | > 100 | > 100 | > 100 | – | > 100 | > 100 | > 100 | > 100 | > 100 | > 100 | – | – | > 100 | > 100 | > 100 | – | > 100 | > 100 | –
3 | Cc1cn(C2OC(CO[Si](C)(C)C(C)(C)C)/C(=C\C#N)C2O[Si](C)(C)C(C)(C)C)c(=O)[nH]c1=O (stereo not given) | > 100 | > 100 | > 100 | > 100 | – | > 100 | > 100 | > 100 | > 100 | > 100 | – | > 100 | > 100 | > 100 | > 100 | > 100 | > 100 | – | –
4 | CC(=O)O[C@H]1C(=O)[C@@]2(C)[C@H]([C@H](OC(=O)c3ccccc3)[C@]3(O)C[C@H](OC(=O)[C@H](O)[C@@H](NC(=O)c4ccc(N)cc4)c4ccccc4)C(C)=C1C3(C)C)[C@]1(OC(C)=O)CO[C@@H]1C[C@@H]2O | – | > 50 | > 50 | > 50 | > 50 | > 50 | > 50 | > 50 | > 50 | > 50 | – | > 50 | > 50 | > 50 | > 50 | < 0.005 | > 50 | > 50 | –
5 | COc1cc2c(/C=C3/C(=O)Nc4ccc(O)cc43)c(Cl)n(Cc3ccccc3)c2cc1C | – | > 87.1 | 2.46 | > 100 | 12.2 | 35.3 | 1.35 | 3.28 | > 40.7 | > 41.9 | 0.629 | 11.8 | > 100 | > 100 | – | – | > 22.6 | 24.6 | 4.67
6 | Cc1nc(N)c(N2CCN(S(N)(=O)=O)CC2)c(=O)[nH]1 | > 100 | > 100 | – | > 100 | > 100 | > 100 | > 100 | > 100 | > 100 | – | > 100 | > 100 | > 100 | > 100 | > 100 | – | > 100 | > 100 | –
7 | CCCCCCCCCCCCCCCCP(=O)(O)OCC(N)C(=O)O (stereo not given) | > 100 | 41.5 | > 100 | > 100 | > 100 | 68.8 | 43.7 | > 100 | – | > 100 | > 100 | > 100 | 65.1 | > 100 | – | > 100 | > 100 | – | –
8 | NCC(Cl)C(O)c1cnc(N)[nH]1 (stereo not given) | – | – | 47.6 | 9.28 | 15.5 | – | 2.96 | – | – | 63 | 11.2 | – | 38.8 | 10.2 | > 65.5 | – | > 63.2 | – | –
9 | CCN(CC)C(=O)c1cc(OC(C)C)ccc1-c1c(C)cc(OC(C)C)c(OC)c1OC | – | – | > 100 | > 100 | > 100 | > 100 | > 100 | – | > 100 | > 100 | > 100 | > 100 | – | > 100 | – | – | > 100 | – | –
10 | CC(=O)OC1C=C(C=O)C(O)(C=O)C2(C)CCCC(C)(C)C12 (stereo not given) | – | – | 2.2 | 13.6 | 4.6 | – | 5.14 | – | – | 6.1 | 2.33 | – | 5.82 | 4.01 | 5.49 | – | 1.7 | – | –
11 | CCOC(=O)/C=C/CC(C)(C)COC(C)=O | > 10 | > 10 | – | > 10 | – | > 10 | > 10 | – | > 10 | > 10 | – | > 10 | > 10 | > 10 | > 10 | > 10 | > 10 | – | –
12 | C1C2CC3CC1CC(c1nn4c(C56CC7CC(CC(C7)C5)C6)nnc4s1)(C2)C3 | > 100 | > 100 | > 100 | > 100 | – | > 100 | > 100 | > 100 | > 100 | > 100 | > 100 | > 100 | > 100 | > 100 | – | > 100 | > 100 | – | –
13 | CC(=O)c1c(-c2ccc(Cl)cc2)c(-c2ccc(Cl)cc2)n[nH]c1=O | > 100 | > 100 | > 100 | > 100 | > 100 | 66.1 | > 100 | > 100 | > 100 | 43.3 | 79 | > 100 | – | 94.8 | > 100 | > 100 | > 100 | – | –
14 | C=C(C)C1CC=C(C)C(=O)C1 (stereo not given) | > 100 | > 100 | > 100 | > 100 | > 100 | > 100 | > 100 | > 100 | > 100 | – | > 100 | > 100 | > 100 | > 100 | > 100 | > 100 | > 100 | – | –
15 | Cc1c2c(cc3c1C(=O)C(=O)C([C@@H](C)CO)=C3O)C(C)(C)CCC2 | > 100 | 48.2 | 86.9 | > 100 | > 100 | – | 34.2 | > 100 | > 100 | > 100 | 57.1 | 67.5 | 86.5 | > 100 | – | > 100 | > 100 | > 100 | –
